One data set concerns HL60. Put plainly: MTT cytotoxicity assay in HL-60 cells. In kind it is cell-based. The note with it: Table 1, MTT assay after 48 h treatment. For orientation: Tetrazolium dyes change colour on reduction, which living cells bring about.
The next data set concerns K562. Put plainly: MTT cytotoxicity assay in K562 cells. In kind it is cell-based. The following applies: Table 1, MTT assay after 48 h treatment.
Another data set has as its system NIH3T3. The experiment in a line: MTT cytotoxicity assay in NIH3T3 fibroblasts. In kind it is cell-based, mouse. The following applies: Table 1, MTT assay after 48 h treatment. The procedure: To consider a molecule as a candidate compound in cancer drug therapy, the test compound must have specific cytotoxicity towards the cancer cells without affecting normal cell growth. Therefore, all active compounds were assessed for toxicity in non-cancer cell-lines: mouse fibroblast cell line (NIH3T3) and monkey kidney epithelial cells (Vero). […] Therefore, based on safety index ([…]), 5d [Centans; based on IUPAC name prefixed with Central Drug Research Institute's signature (Cent)] was selected as a lead compound.

The structures appear in SMILES notation. Structures can show the parent of a compound that is named as a salt. A value given as a limit tells only on which side of the number the result lay.

By melting point is commonly meant the temperature, or range, at which the solid turns liquid. One may read the IC50 as the concentration that gives 50% inhibition. A high value points to weaker potency.

Molecule `CSc1ccc(/C(=N/OCCN2CCCCC2)c2cccc3ccccc23)cc1` (as salt: oxalate) [Compound 5a, (4-(methylthio)phenyl)(naphthalen-1-yl)methanone O-2-(piperidin-1-yl)ethyl oxime oxalate] returned a melting point of 155 °C. Same read-out and setting: in the case of `CSc1ccc(/C(=N/OCCN2CCCC2)c2cccc3ccccc23)cc1` (as salt: oxalate) [Compound 5b, (4-(methylthio)phenyl)(naphthalen-1-yl)methanone O-2-(pyrrolidin-1-yl)ethyl oxime oxalate] it was 153 °C. Molecule `CSc1ccc(/C(=N/OCCN(C)C)c2cccc3ccccc23)cc1` (as salt: oxalate) [Compound 5c, (4-(methylthio)phenyl)(naphthalen-1-yl)methanone O-2-(dimethylamino)ethyl oxime oxalate] displayed a melting point of 105 °C. Same read-out and setting: in the case of `CSc1ccc(/C(=N/OC(C)CN(C)C)c2cccc3ccccc23)cc1` (stereo not shown) (as salt: oxalate) [Compound 5g, (4-(methylthio)phenyl)(naphthalen-1-yl)methanone O-1-(dimethylamino)propan-2-yl oxime oxalate] it was 101 °C. Same read-out and setting: in the case of `CSc1ccc(/C(=N/OCCN2CCCCCC2)c2cccc3ccccc23)cc1` (as salt: oxalate) [Compound 5h, (4-(methylthio)phenyl)(naphthalen-1-yl)methanone O-2-(azepan-1-yl)ethyl oxime oxalate] it was 145 °C. On the same count and under the same terms, in the case of `CSc1ccc(/C(=N/OCCCN(C)C)c2cccc3ccccc23)cc1` (as salt: oxalate) [Compound 5m, (4-(methylthio)phenyl)(naphthalen-1-yl)methanone O-3-(dimethylamino)propyl oxime oxalate] it was 110 °C; in that of `COc1ccc(/C(=N/OCCN2CCCCC2)c2cccc3ccccc23)cc1` (as salt: oxalate) [Compound 6a, (4-methoxyphenyl)(naphthalen-1-yl)methanone O-2-(piperidin-1-yl)ethyl oxime oxalate], 171 °C; in that of `COc1ccc(/C(=N/OCCN2CCCC2)c2cccc3ccccc23)cc1` (as salt: oxalate) [Compound 6b, (4-methoxyphenyl)(naphthalen-1-yl)methanone O-2-(pyrrolidin-1-yl)ethyl oxime oxalate], 158 °C. The molecule `COc1ccc(/C(=N/OCCN(C)C)c2cccc3ccccc23)cc1` (as salt: oxalate) [Compound 6c, (4-methoxyphenyl)(naphthalen-1-yl)methanone O-2-(dimethylamino)ethyl oxime oxalate] displayed a melting point of 141 °C.

`CCN(CC)CCO/N=C(/c1ccc(OC)cc1)c1cccc2ccccc12` (as salt: oxalate) [Compound 6d, (4-methoxyphenyl)(naphthalen-1-yl)methanone O-2-(diethylamino)ethyl oxime oxalate] had a melting point of 137 °C. On the same count and under the same terms, then `COc1ccc(/C(=N/OCCN(C(C)C)C(C)C)c2cccc3ccccc23)cc1` (as salt: oxalate) [Compound 6e, (4-methoxyphenyl)(naphthalen-1-yl)methanone O-2-(diisopropylamino)ethyl oxime oxalate], with 130 °C; and `COc1ccc(/C(=N/OC(C)CN(C)C)c2cccc3ccccc23)cc1` (stereo not shown) (as salt: oxalate) [Compound 6f, (4-methoxyphenyl)(naphthalen-1-yl)methanone O-1-(dimethylamino)propan-2-yl oxime oxalate], with 105 °C. Molecule `COc1ccc(/C(=N/OCCN2CCCCCC2)c2cccc3ccccc23)cc1` (as salt: oxalate) [Compound 6g, (4-methoxyphenyl)(naphthalen-1-yl)methanone O-2-(azepan-1-yl)ethyl oxime oxalate] displayed a melting point of 122 °C. On the same count and under the same terms, in the case of `COc1ccc(/C(=N/OCCCN(C)C)c2cccc3ccccc23)cc1` (as salt: oxalate) [Compound 6i, (4-methoxyphenyl)(naphthalen-1-yl)methanone O-3-(dimethylamino)propyl oxime oxalate] it was 155 °C; in that of `CSc1ccc(/C(=N/OCCCN2CCCCC2)c2cccc3ccccc23)cc1` (as salt: oxalate) [Compound 7a, (4-(methylthio)phenyl)(naphthalen-1-yl)methanone O-3-(piperidin-1-yl)propyl oxime oxalate], 137 °C.

The molecule `CSc1ccc(/C(=N/OCCCN2CCC(C)CC2)c2cccc3ccccc23)cc1` (as salt: oxalate) [Compound 7c, (4-(methylthio)phenyl)(naphthalen-1-yl)methanone O-3-(4-methylpiperidin-1-yl)propyl oxime oxalate] gave a melting point of 145 °C. Turning to `CSc1ccc(/C(=N/OCCN(C(C)C)C(C)C)c2cccc3ccccc23)cc1` [Compound 5e, (4-(methylthio)phenyl)(naphthalen-1-yl)methanone O-2-(diisopropylamino)ethyl oxime], the IC50 with HL60 (Homo sapiens, HL-60, 48 h) stood at 14 µM; in the data set on K562 (Homo sapiens, K562, 48 h), 7 µM; in the data set on NIH3T3 (Mus musculus, NIH3T3, 48 h), 16 µM. As to `CSc1ccc(/C(=N/OC(C)CN(C)C)c2cccc3ccccc23)cc1` (stereo not shown) [Compound 5g, (4-(methylthio)phenyl)(naphthalen-1-yl)methanone O-1-(dimethylamino)propan-2-yl oxime oxalate], the IC50 was above 50 µM with HL60 (Homo sapiens, HL-60, 48 h); above 50 µM with K562 (Homo sapiens, K562, 48 h); above 50 µM in the data set on NIH3T3 (Mus musculus, NIH3T3, 48 h). On to `CSc1ccc(/C(=N/OCCN2CCCCCC2)c2cccc3ccccc23)cc1` [Compound 5h, (4-(methylthio)phenyl)(naphthalen-1-yl)methanone O-2-(azepan-1-yl)ethyl oxime oxalate], for which the IC50 in the data set on HL60 (Homo sapiens, HL-60, 48 h) was above 50 µM; in the data set on K562 (Homo sapiens, K562, 48 h) it was above 50 µM; in the data set with NIH3T3 (Mus musculus, NIH3T3, 48 h), above 50 µM.

`CCN(CC)CCO/N=C(/c1ccc(SC)cc1)c1cccc2ccccc12` [Compound 5i, (4-(methylthio)phenyl)(naphthalen-1-yl)methanone O-2-(diethylamino)ethyl oxime citrate]: the IC50 in the data set with HL60 (citrate) was above 50 µM; with K562 (citrate) it was above 30 µM; in the data set with NIH3T3 (citrate), 40 µM.

For `CCN(CC)CCO/N=C(/c1ccc(SC)cc1)c1cccc2ccccc12` [Compound 5k, (4-(methylthio)phenyl)(naphthalen-1-yl)methanone O-2-(diethylamino)ethyl oxime tartrate], the concentration for half-maximal inhibition (IC50) with HL60 (tartrate), in the data set with K562 (tartrate) and in the data set on NIH3T3 (tartrate) was above 50 µM throughout. Take `CCN(CC)CCO/N=C(/c1ccc(SC)cc1)c1cccc2ccccc12` [Compound 5l, (4-(methylthio)phenyl)(naphthalen-1-yl)methanone O-2-(diethylamino)ethyl oxime]: the IC50 in the data set with HL60, in the data set on K562 and in the data set with NIH3T3 was above 50 µM throughout. Take `CCOC(=O)CO/N=C(/c1ccc(SC)cc1)c1cccc2ccccc12` [Compound 5p, Ethyl 2-((4-(methylthio)phenyl) (naphthalen-1-yl)methyleneaminooxy) acetate]: the half-inhibitory concentration (IC50) is 15 µM in the data set on HL60 (Homo sapiens, HL-60, 48 h); above 50 µM in the data set on K562 (Homo sapiens, K562, 48 h); above 50 µM in the data set with NIH3T3 (Mus musculus, NIH3T3, 48 h). Turning to `CCN(CC)C(=O)CO/N=C(/c1ccc(SC)cc1)c1cccc2ccccc12` [Compound 5q, N,N-diethyl-2-((4-(methylthio)phenyl) (naphthalen-1-yl)methyleneaminooxy)acetamide], the IC50 is above 50 µM in the data set on HL60 (Homo sapiens, HL-60, 48 h); above 50 µM in the data set on K562 (Homo sapiens, K562, 48 h); above 50 µM in the data set with NIH3T3 (Mus musculus, NIH3T3, 48 h).

As for `COc1ccc(/C(=N/OC(C)CN(C)C)c2cccc3ccccc23)cc1` (stereo not shown) [Compound 6f, (4-methoxyphenyl)(naphthalen-1-yl)methanone O-1-(dimethylamino)propan-2-yl oxime oxalate], the concentration for half-maximal inhibition (IC50) in the data set on HL60 (Homo sapiens, HL-60, 48 h) is above 50 µM; in the data set on K562 (Homo sapiens, K562, 48 h), above 50 µM; with NIH3T3 (Mus musculus, NIH3T3, 48 h) it was above 50 µM. As to `COc1ccc(/C(=N/OCCN2CCCCCC2)c2cccc3ccccc23)cc1` [Compound 6g, (4-methoxyphenyl)(naphthalen-1-yl)methanone O-2-(azepan-1-yl)ethyl oxime oxalate], the IC50 in the data set on HL60 (Homo sapiens, HL-60, 48 h) is above 50 µM; with K562 (Homo sapiens, K562, 48 h), 6.66 µM; in the data set with NIH3T3 (Mus musculus, NIH3T3, 48 h), 16 µM. Regarding `COc1ccc(/C(=N/OCCN2CCOCC2)c2cccc3ccccc23)cc1` [Compound 6h, (4-methoxyphenyl)(naphthalen-1-yl)methanone O-2-morpholinoethyl oxime], the half-inhibitory concentration (IC50) in the data set on HL60 (Homo sapiens, HL-60, 48 h) was above 50 µM; in the data set with K562 (Homo sapiens, K562, 48 h) it was 19 µM; with NIH3T3 (Mus musculus, NIH3T3, 48 h), 26 µM. For the molecule `CCCCN(C)CCCO/N=C(/c1ccc(SC)cc1)c1cccc2ccccc12` [Compound 7d, (4-(methylthio)phenyl)(naphthalen-1-yl)methanone O-3-(butyl(methyl)amino)propyl oxime], the IC50 in the data set on HL60 (Homo sapiens, HL-60, 48 h) is 13 µM; with K562 (Homo sapiens, K562, 48 h), above 50 µM; in the data set on NIH3T3 (Mus musculus, NIH3T3, 48 h), above 50 µM. Take `CSc1ccc(/C(=N/OCCCCNCCc2ccccc2)c2cccc3ccccc23)cc1` [Compound 8c, (4-(methylthio)phenyl)(naphthalen-1-yl)methanone O-4-(phenethylamino)butyl oxime]: the IC50 with HL60 (Homo sapiens, HL-60, 48 h) was above 50 µM; with K562 (Homo sapiens, K562, 48 h), above 30 µM; with NIH3T3 (Mus musculus, NIH3T3, 48 h) it was above 50 µM. With `CCN(CCCCO/N=C(/c1ccc(SC)cc1)c1cccc2ccccc12)Cc1ccccc1` [Compound 8d, (4-(methylthio)phenyl)(naphthalen-1-yl) methanone O-4-(benzyl(ethyl)amino)butyl oxime], the IC50 was above 50 µM in the data set on HL60 (Homo sapiens, HL-60, 48 h); 16.3 µM in the data set with K562 (Homo sapiens, K562, 48 h); above 50 µM in the data set on NIH3T3 (Mus musculus, NIH3T3, 48 h).

For the origin of these results see patent US9994515B2, “Aryl naphthyl methanone oxime(s) and process for preparation thereof” (Council of Scientific & Industrial Research, priority 2013, dated 2018).
